The nature of assay [1]: FRAP (ferric reducing antioxidant power) assay.
For assay [2], the target named is T1, hMAO-B (Homo sapiens, UniProt P27338).
T1 sequence (P27338 1-520): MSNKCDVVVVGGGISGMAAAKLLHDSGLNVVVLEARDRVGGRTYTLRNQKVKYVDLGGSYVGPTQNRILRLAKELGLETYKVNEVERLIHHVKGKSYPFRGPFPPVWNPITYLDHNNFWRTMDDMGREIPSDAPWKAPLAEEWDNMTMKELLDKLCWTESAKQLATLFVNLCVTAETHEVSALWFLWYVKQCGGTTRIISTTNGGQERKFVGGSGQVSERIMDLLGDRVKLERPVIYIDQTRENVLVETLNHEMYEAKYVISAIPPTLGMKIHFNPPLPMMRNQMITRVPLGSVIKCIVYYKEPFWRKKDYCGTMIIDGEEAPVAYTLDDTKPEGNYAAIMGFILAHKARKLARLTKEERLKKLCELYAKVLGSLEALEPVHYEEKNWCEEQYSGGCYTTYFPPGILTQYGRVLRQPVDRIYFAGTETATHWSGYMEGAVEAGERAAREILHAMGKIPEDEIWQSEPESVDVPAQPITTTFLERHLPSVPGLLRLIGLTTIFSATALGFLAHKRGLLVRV
The assay can be described thus: Reversibility of MAO-B inhibition by dialysis. Type of assay: biochemical. How it is done: Stock solutions of the test compounds were prepared in DMSO and added to the incubations to yield 4% DMSO. The samples were dialyzed for 24 h at 4 °C in 80 ml of dialysis buffer using Slide-A-Lyzer® dialysis cassettes (Thermo Scientific) with a molecular weight cut-off of 10,000 and a sample volume capacity of 0.5–3 ml. The dialysis buffer was replaced at 3 and 7 h after the start of dialysis. Following dialysis, the dialysis samples were diluted twofold with the addition of kynuramine to yield a kynuramine concentration and inhibitor concentration of 50 µM and 2 × IC50, respectively. The reactions (500 µL) were incubated for 20 min at 37 °C and terminated with NaOH (400 μL, 2 N) and water (1000 µL). The fluorescence of 4-hydroxyquinoline in these samples was measured as described for the IC50 determination above. […] Undialysed mixtures of MAO-B and the test inhibitors were maintained at 4 °C for 24 h and diluted and assayed as above. All reactions were carried out in triplicate and the residual enzyme catalytic rates are expressed as mean ± SD.
Reversibility of MAO inhibition is an important factor to consider when evaluating the inhibition properties of potential inhibitors. Irreversible MAO inhibitors, particularly of the MAO-A isoform, are associated with dangerous adverse effects such as the cheese reaction, which occurs when irreversible MAO-A inhibitors are taken with tyramine-rich food[51]. […] The samples were diluted twofold and the residual MAO-B activity was measured. For reversible inhibition, dialysis is expected to reverse inhibition by the test inhibitors and restore enzyme activity to the level of the negative control. […] A final experiment consisted of incubations containing MAO-B and tested inhibitors which were not dialyzed, but maintained for 24 h.

Assay [3] addresses T1, hMAO-B. The assay can be described thus: Lineweaver-Burk plots, mode of inhibition and Ki. Type of assay: biochemical. How it is done: To construct Lineweaver–Burk plots, the enzyme reactions were carried out to a volume of 500 µL and the concentration of MAO-B was 0.015 mg protein/mL. All enzyme reactions and activity measurements were carried out as described above for the dialysis experiments. The first plot was constructed in the absence of inhibitor, while the remaining five plots were constructed in the presence of the following concentrations: ¼ × IC50, ½ × IC50, ¾ × IC50, 1 × IC50 and 1¼ × IC50. For each line, kynuramine was used at concentrations of 15–250 μM. The Ki value was estimated from a plot of the slopes of the Lineweaver–Burk plots versus inhibitor concentration (x-axis intercept equals –Ki).
To provide further support for the reversibility of MAO-B inhibition by compounds 4 and 37, a set of Lineweaver–Burk plots was constructed for each inhibitor at the following inhibitor concentrations: ¼ × IC50, ½ × IC50, ¾ × IC50, 1 × IC50, and 1¼ × IC50. The substrate, kynuramine, was used at 15–250 µM for each line. […] The lines of the plots intersect on the y-axis and a replot of the slopes versus inhibitor concentration yields a linear line, from which the enzyme-inhibitor dissociation constant (Ki) was estimated (Ki = −x-axis intercept).

Assay [4] is described as follows: DPPH radical scavenging activity. (In general: Loss of DPPH colour is used to gauge radical scavenging.)
Assay [5] is described as follows: Cupric ion reducing activity (CUPRAC).

Results on 1 molecule are retold here after article PMC6366404, “4-(3-Nitrophenyl)thiazol-2-ylhydrazone derivatives as antioxidants and selective hMAO-B inhibitors: synthesis, biological activity and computational analysis” (Journal of Enzyme Inhibition and Medicinal Chemistry, 2019).

In general, EC50 refers to the concentration needed to bring the measured effect to its halfway point. Read a high EC50 as a need for much substance. What is called Ki is a measure of affinity in units of concentration, obtained from inhibition or displacement. In general, IC50 refers to the midpoint of a concentration-inhibition curve. Higher therefore signals weaker potency.

For the molecule `CC(=NNc1nc(-c2cccc([N+](=O)[O-])c2)cs1)c1cccs1` [Compound 4, 1-(4-(3-Nitrophenyl)thiazol-2-yl)-2-(1-(thiophen-2-yl)ethylidene)hydrazine], the EC50 came to 530 ± 20 µM in assay [1] and 520 ± 20 µM in assay [5]. Also, the “Reversibility of MAO-B inhibition” value on hMAO-B [2] (dialysis 24 h) was “partially reversible”. Also, on hMAO-B [2] (inhibitor at 4 × IC50, not dialyzed, maintained 24 h), the “Residual MAO-B activity, undialysed mixtures” value is 33%. Also, the “Residual MAO-B activity after dialysis” value on hMAO-B [2] (inhibitor at 4 × IC50, preincubated 15 min, dialyzed 24 h, relative to negative control) was 61%. On hMAO-B [3], this molecule showed a Ki of 0.0026 µM. For the same molecule, the “Mode of MAO-B inhibition” value at hMAO-B [3] (Lineweaver-Burk plots) is listed as “competitive”. In addition, the IC50 in assay [4] came to 1170 ± 10 µM.
